Reference: ChEMBL document CHEMBL3885881, “DrugMatrix”

Organism: Rattus norvegicus
Assay: DrugMatrix - Regimen: Daily Repeat
Assay type: toxicity, organism-based, Sprague-Dawley
Parameters: regimen Daily Repeat, gender Male, age 6-8 weeks
Settings: in vivo, po, route oral GAVAGE, dose level High, vehicle 100 % SALINE; for HEMOGLOBIN / LEUKOCYTE COUNT / LYMPHOCYTE / MEAN CORPUSCULAR HEMOGLOBIN / MEAN CORPUSCULAR HEMOGLOBIN CONCENTRATION / MONOCYTE / NEUTROPHIL / NUCLEATED RED BLOOD CELLS / PLATELET COUNT / ABSOLUTE BASOPHIL / ABSOLUTE EOSINOPHIL / ABSOLUTE LYMPHOCYTE / ABSOLUTE MONOCYTE / ABSOLUTE SEGMENTED NEUTROPHIL / BASOPHIL / EOSINOPHIL / ERYTHROCYTE COUNT / HEMATOCRIT: tissue Blood; for ALANINE AMINOTRANSFERASE / ALBUMIN / ALKALINE PHOSPHATASE / ASPARTATE AMINOTRANSFERASE / BLOOD UREA NITROGEN / CARBON DIOXIDE / CHLORIDE / CHOLESTEROL / CREATINE PHOSPHOKINASE / CREATININE / GLUCOSE / LACTATE DEHYDROGENASE / LIPASE / PHOSPHORUS / SODIUM / TOTAL BILIRUBIN / TOTAL PROTEIN: tissue Plasma

With CN(C)C=O [DIMETHYLFORMAMIDE] the HEMOGLOBIN (1400 mg/kg, 120 h, time 5 day) was 16.7 G/DL, the “LEUKOCYTE COUNT” value (1400 mg/kg, 120 h, time 5 day) was 7.95 x10E3/uL and the LYMPHOCYTE (1400 mg/kg, 120 h, time 5 day) was 93%. For the same compound, the “MEAN CORPUSCULAR HEMOGLOBIN” value (1400 mg/kg, 120 h, time 5 day) was 22.95 pg, the “MEAN CORPUSCULAR HEMOGLOBIN CONCENTRATION” value (1400 mg/kg, 120 h, time 5 day) was 36.55 G/DL and the MONOCYTE (1400 mg/kg, 120 h, time 5 day) was 0.5%. For the same compound, the NEUTROPHIL (1400 mg/kg, 120 h, time 5 day) was 6.5%, the “NUCLEATED RED BLOOD CELLS” value (1400 mg/kg, 120 h, time 5 day) was 0 /100WBC and the “PLATELET COUNT” value (1400 mg/kg, 120 h, time 5 day) was 998 x10E3/uL. The “ALANINE AMINOTRANSFERASE” value (1400 mg/kg, 120 h, time 5 day) was 5117.67 u/L, the ALBUMIN (1400 mg/kg, 120 h, time 5 day) was 4.53 G/DL and the “ALKALINE PHOSPHATASE” value (1400 mg/kg, 120 h, time 5 day) was 286.67 u/L. The “ASPARTATE AMINOTRANSFERASE” value (1400 mg/kg, 120 h, time 5 day) was 8354 u/L, the “BLOOD UREA NITROGEN” value (1400 mg/kg, 120 h, time 5 day) was 21 mg/dL and the “CARBON DIOXIDE” value (1400 mg/kg, 120 h, time 5 day) was 35 mmol/L. The CHLORIDE (1400 mg/kg, 120 h, time 5 day) was 92 MEQ/L, the CHOLESTEROL (1400 mg/kg, 120 h, time 5 day) was 136 mg/dL and the “CREATINE PHOSPHOKINASE” value (1400 mg/kg, 120 h, time 5 day) was 493.33 u/L. For the same compound, the CREATININE (1400 mg/kg, 120 h, time 5 day) was 0.36 mg/dL, the GLUCOSE (1400 mg/kg, 120 h, time 5 day) was 145 mg/dL and the “LACTATE DEHYDROGENASE” value (1400 mg/kg, 120 h, time 5 day) was 42966.33 u/L. It also gave an LIPASE (1400 mg/kg, 120 h, time 5 day) of 12.33 u/L, a PHOSPHORUS (1400 mg/kg, 120 h, time 5 day) of 13.03 mg/dL and an SODIUM (1400 mg/kg, 120 h, time 5 day) of 146.2 MEQ/L. For the same compound, the “TOTAL BILIRUBIN” value (1400 mg/kg, 120 h, time 5 day) was 0.5 mg/dL, the “TOTAL PROTEIN” value (1400 mg/kg, 120 h, time 5 day) was 7.33 G/DL and the “ABSOLUTE BASOPHIL” value (2100 mg/kg, 72 h, time 3 day) was 0 CELLS/uL. The “ABSOLUTE EOSINOPHIL” value (2100 mg/kg, 72 h, time 3 day) was 16 CELLS/uL, the “ABSOLUTE LYMPHOCYTE” value (2100 mg/kg, 72 h, time 3 day) was 6718 CELLS/uL and the “ABSOLUTE MONOCYTE” value (2100 mg/kg, 72 h, time 3 day) was 23.33 CELLS/uL. The “ABSOLUTE SEGMENTED NEUTROPHIL” value (2100 mg/kg, 72 h, time 3 day) was 509.33 CELLS/uL, the BASOPHIL (2100 mg/kg, 72 h, time 3 day) was 0% and the EOSINOPHIL (2100 mg/kg, 72 h, time 3 day) was 0.17%. For the same compound, the “ERYTHROCYTE COUNT” value (2100 mg/kg, 72 h, time 3 day) was 5.8 x10E6/uL, the HEMATOCRIT (2100 mg/kg, 72 h, time 3 day) was 38.27% and the HEMOGLOBIN (2100 mg/kg, 72 h, time 3 day) was 13.57 G/DL. For the same compound, the “LEUKOCYTE COUNT” value (2100 mg/kg, 72 h, time 3 day) was 7.27 x10E3/uL, the LYMPHOCYTE (2100 mg/kg, 72 h, time 3 day) was 92.5% and the “MEAN CORPUSCULAR HEMOGLOBIN” value (2100 mg/kg, 72 h, time 3 day) was 23.42 pg. The “MEAN CORPUSCULAR HEMOGLOBIN CONCENTRATION” value (2100 mg/kg, 72 h, time 3 day) was 35.45 G/DL, the MONOCYTE (2100 mg/kg, 72 h, time 3 day) was 0.33% and the NEUTROPHIL (2100 mg/kg, 72 h, time 3 day) was 7%. For the same compound, the “NUCLEATED RED BLOOD CELLS” value (2100 mg/kg, 72 h, time 3 day) was 0 /100WBC, the “PLATELET COUNT” value (2100 mg/kg, 72 h, time 3 day) was 1059 x10E3/uL and the “ALANINE AMINOTRANSFERASE” value (2100 mg/kg, 72 h, time 3 day) was 105.67 u/L. The ALBUMIN (2100 mg/kg, 72 h, time 3 day) was 4.47 G/DL, the “ALKALINE PHOSPHATASE” value (2100 mg/kg, 72 h, time 3 day) was 224.5 u/L and the “ASPARTATE AMINOTRANSFERASE” value (2100 mg/kg, 72 h, time 3 day) was 117.33 u/L. For the same compound, the “BLOOD UREA NITROGEN” value (2100 mg/kg, 72 h, time 3 day) was 14.5 mg/dL, the “CARBON DIOXIDE” value (2100 mg/kg, 72 h, time 3 day) was 31.33 mmol/L and the CHLORIDE (2100 mg/kg, 72 h, time 3 day) was 100.17 MEQ/L. For the same compound, the CHOLESTEROL (2100 mg/kg, 72 h, time 3 day) was 99.33 mg/dL, the “CREATINE PHOSPHOKINASE” value (2100 mg/kg, 72 h, time 3 day) was 191 u/L and the CREATININE (2100 mg/kg, 72 h, time 3 day) was 0.22 mg/dL. For the same compound, the GLUCOSE (2100 mg/kg, 72 h, time 3 day) was 143.67 mg/dL, the “LACTATE DEHYDROGENASE” value (2100 mg/kg, 72 h, time 3 day) was 109.83 u/L and the LIPASE (2100 mg/kg, 72 h, time 3 day) was 10.33 u/L. The PHOSPHORUS (2100 mg/kg, 72 h, time 3 day) was 9.67 mg/dL, the SODIUM (2100 mg/kg, 72 h, time 3 day) was 146.58 MEQ/L and the “TOTAL BILIRUBIN” value (2100 mg/kg, 72 h, time 3 day) was 0.17 mg/dL. The “TOTAL PROTEIN” value (2100 mg/kg, 72 h, time 3 day) was 6.25 G/DL, the “ABSOLUTE BASOPHIL” value (2100 mg/kg, […], time 7 day) was 0 CELLS/uL and the “ABSOLUTE EOSINOPHIL” value (2100 mg/kg, […], time 7 day) was 0 CELLS/uL. The “ABSOLUTE LYMPHOCYTE” value (2100 mg/kg, […], time 7 day) was 6108.5 CELLS/uL, the “ABSOLUTE MONOCYTE” value (2100 mg/kg, […], time 7 day) was 208.75 CELLS/uL and the “ABSOLUTE SEGMENTED NEUTROPHIL” value (2100 mg/kg, […], time 7 day) was 1557.75 CELLS/uL. The BASOPHIL (2100 mg/kg, […], time 7 day) was 0%, the EOSINOPHIL (2100 mg/kg, […], time 7 day) was 0% and the “ERYTHROCYTE COUNT” value (2100 mg/kg, […], time 7 day) was 6.06 x10E6/uL. For the same compound, the HEMATOCRIT (2100 mg/kg, […], time 7 day) was 37.55%, the HEMOGLOBIN (2100 mg/kg, […], time 7 day) was 14.95 G/DL and the “LEUKOCYTE COUNT” value (2100 mg/kg, […], time 7 day) was 7.88 x10E3/uL. The LYMPHOCYTE (2100 mg/kg, […], time 7 day) was 79.5%, the “MEAN CORPUSCULAR HEMOGLOBIN” value (2100 mg/kg, […], time 7 day) was 24.67 pg and the “MEAN CORPUSCULAR HEMOGLOBIN CONCENTRATION” value (2100 mg/kg, […], time 7 day) was 39.83 G/DL. The MONOCYTE (2100 mg/kg, […], time 7 day) was 2.5%, the NEUTROPHIL (2100 mg/kg, […], time 7 day) was 18% and the “NUCLEATED RED BLOOD CELLS” value (2100 mg/kg, […], time 7 day) was 0 /100WBC. The “PLATELET COUNT” value (2100 mg/kg, […], time 7 day) was 396 x10E3/uL, the “ALANINE AMINOTRANSFERASE” value (2100 mg/kg, […], time 7 day) was 452.75 u/L and the ALBUMIN (2100 mg/kg, […], time 7 day) was 4.22 G/DL. The “ALKALINE PHOSPHATASE” value (2100 mg/kg, […], time 7 day) was 271.25 u/L, the “ASPARTATE AMINOTRANSFERASE” value (2100 mg/kg, […], time 7 day) was 1219.25 u/L and the “BLOOD UREA NITROGEN” value (2100 mg/kg, […], time 7 day) was 15.25 mg/dL. The “CARBON DIOXIDE” value (2100 mg/kg, […], time 7 day) was 29 mmol/L, the CHLORIDE (2100 mg/kg, […], time 7 day) was 103 MEQ/L and the CHOLESTEROL (2100 mg/kg, […], time 7 day) was 75.75 mg/dL. For the same compound, the “CREATINE PHOSPHOKINASE” value (2100 mg/kg, […], time 7 day) was 261 u/L, the CREATININE (2100 mg/kg, […], time 7 day) was 0.25 mg/dL and the GLUCOSE (2100 mg/kg, […], time 7 day) was 147.75 mg/dL. The “LACTATE DEHYDROGENASE” value (2100 mg/kg, […], time 7 day) was 101.25 u/L, the LIPASE (2100 mg/kg, […], time 7 day) was 10.25 u/L and the PHOSPHORUS (2100 mg/kg, […], time 7 day) was 7.55 mg/dL. For the same compound, the SODIUM (2100 mg/kg, […], time 7 day) was 147.12 MEQ/L, the “TOTAL BILIRUBIN” value (2100 mg/kg, […], time 7 day) was 0.33 mg/dL and the “TOTAL PROTEIN” value (2100 mg/kg, […], time 7 day) was 5.7 G/DL.
